Source: PMC5764323, “The etomidate analog ET-26 HCl retains superior myocardial performance: Comparisons with etomidate in vivo and in vitro” (PLoS ONE, 2018)
pIC50: −log10 of the molar value. Where a name gives a salt, the structure may show the parent alone.

Molecular target: T1, human ether-a-go-go-related gene (hERG) channel (Homo sapiens, UniProt Q12809)
T1 construct: gene KCNH2
Experiment: whole-cell patch clamp, hERG tail current in HEK-293 cells
Format: cell-based
Description: whole-cell patch clamp, hERG tail current in HEK-293 cells on human ether-a-go-go-related gene (hERG) channel | etomidate inhibited the tail current of the hERG in a concentration-dependent manner | The etomidate analogue, ET-26 HCl, inhibited the hERG current in a similar concentration-dependent manner

T1 sequence (Q12809 whole entry): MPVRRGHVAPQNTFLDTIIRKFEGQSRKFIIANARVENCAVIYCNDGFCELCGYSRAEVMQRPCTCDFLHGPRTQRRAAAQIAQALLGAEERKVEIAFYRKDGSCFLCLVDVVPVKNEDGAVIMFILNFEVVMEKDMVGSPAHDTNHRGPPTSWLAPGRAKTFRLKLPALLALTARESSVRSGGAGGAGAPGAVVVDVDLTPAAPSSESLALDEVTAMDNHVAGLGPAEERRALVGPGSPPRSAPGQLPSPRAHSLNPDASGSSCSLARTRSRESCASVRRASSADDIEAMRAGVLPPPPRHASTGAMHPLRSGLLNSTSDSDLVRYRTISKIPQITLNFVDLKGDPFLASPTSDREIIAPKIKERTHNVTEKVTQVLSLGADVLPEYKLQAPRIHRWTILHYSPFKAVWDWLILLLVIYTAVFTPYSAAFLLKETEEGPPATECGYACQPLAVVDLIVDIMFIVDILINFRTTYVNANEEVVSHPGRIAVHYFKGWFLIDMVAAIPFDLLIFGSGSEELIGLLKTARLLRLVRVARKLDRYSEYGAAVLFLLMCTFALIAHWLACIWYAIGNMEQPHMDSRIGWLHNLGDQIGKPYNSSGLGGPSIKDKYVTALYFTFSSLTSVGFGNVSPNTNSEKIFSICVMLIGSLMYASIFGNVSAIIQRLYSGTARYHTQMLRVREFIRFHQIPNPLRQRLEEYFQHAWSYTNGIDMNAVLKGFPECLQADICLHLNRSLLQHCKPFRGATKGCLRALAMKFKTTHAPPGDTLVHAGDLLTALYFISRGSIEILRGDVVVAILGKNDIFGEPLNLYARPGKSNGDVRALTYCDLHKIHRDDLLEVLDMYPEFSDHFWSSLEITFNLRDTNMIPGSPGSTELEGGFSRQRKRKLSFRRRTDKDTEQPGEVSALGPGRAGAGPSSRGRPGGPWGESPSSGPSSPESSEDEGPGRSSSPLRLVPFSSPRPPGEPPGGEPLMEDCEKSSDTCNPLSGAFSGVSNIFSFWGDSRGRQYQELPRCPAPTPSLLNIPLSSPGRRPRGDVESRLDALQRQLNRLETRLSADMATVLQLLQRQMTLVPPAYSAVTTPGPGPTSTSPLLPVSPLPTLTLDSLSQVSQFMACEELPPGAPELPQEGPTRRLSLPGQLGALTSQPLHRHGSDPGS

| SMILES | pIC50 |
| --- | --- |
| COCCOC(=O)c1cncn1[C@H](C)c1ccccc1 [ET-26 HCl, (R)-2-methoxyethyl1-(1-phenylethyl)-1H-imidazole-5-carboxylate hydrochloride] | 3.13 |
| CCOC(=O)c1cncn1[C@H](C)c1ccccc1 [etomidate] | 3.58 |
